Test results: patent publication US12465603B2, “Phthalazinone based modulators for the treatment of disease” (Soley Therapeutics, Inc., priority 2022, dated 2025)

Columns and labels:
[1] = test system: PA1 (ECACC, 90013101) cells; assay: Cell viability assay (Cell Titre Glo, 72 hours) in PA1 cells; format: cell-based; details: Homo sapiens, PA-1
Method: (§1) Example 31: Cell Viability Assays
(§2) Phthalazinone based modulators as described herein were dispensed into 384 well CulturPlates™ (PerkinElmer) using Echo 555 acoustic dispensing in 10-point dose response curves at a final top concentration of 30 μM following a 1 in 3 dilution series. A2058 (ATCC, CRL-11147) or PA1 (ECACC, 90013101) cells were added directly to a compound at a density of 5000 cells per well in a final volume of 50 μL and incubated for 72 hours at 37° C., 5% CO2. Viability was assessed using Cell Titre Glo® (Promega) according to the manufacturer's instructions (25 μL per well) and IC50 curves were generated for each inhibitor using IDBS ActivityBase data analysis software.

[2] = test system: A2058 (ATCC, CRL-11147) cells; assay: Cell viability assay (Cell Titre Glo, 72 hours) in A2058 cells; format: cell-based; details: Homo sapiens
Method: as §1, §2

## CCn1nc(C(=O)N2CCN(c3ccc(Cl)cc3OC)CC2)c2ccccc2c1=O [Compound 117]
[1]
  IC50: ≤ 1 µM
[2]
  IC50: ≤ 1 µM

## CCn1nc(C(=O)N2CCN(c3cnccc3OC)CC2)c2ccccc2c1=O [Compound 118]
[1]
  IC50: ≤ 1 µM
[2]
  IC50: ≤ 1 µM

## CCn1nc(C(=O)N2CCN(c3ccc(F)cc3C3CC3)CC2)c2ccccc2c1=O [Compound 119]
[1]
  IC50: ≤ 1 µM
[2]
  IC50: ≤ 1 µM

## CCn1nc(C(=O)N2CCN(c3ccc(F)cc3OC(F)(F)F)CC2)c2ccccc2c1=O [Compound 120]
[1]
  IC50: 1 to 10 µM
[2]
  IC50: 1 to 10 µM

## CCn1nc(C(=O)N2CCN(c3cc(F)ccc3OC)CC2)c2ccccc2c1=O [Compound 121]
[1]
  IC50: ≤ 1 µM
[2]
  IC50: ≤ 1 µM

## CCn1nc(C(=O)N2CCN(c3cncnc3C3CC3)CC2)c2ccccc2c1=O [Compound 122]
[1]
  IC50: ≤ 1 µM
[2]
  IC50: 1 to 10 µM

## CCn1nc(C(=O)N2CCN(c3c(C)cnc4ccccc34)CC2)c2ccccc2c1=O [Compound 123]
[1]
  IC50: > 20 µM
[2]
  IC50: > 20 µM

## CCn1nc(C(=O)N2CCN(c3cccc4c3OC(F)(F)O4)CC2)c2ccccc2c1=O [Compound 124]
[1]
  IC50: ≤ 1 µM
[2]
  IC50: ≤ 1 µM

## CCn1nc(C(=O)N2CCN(c3ccc(C)s3)CC2)c2ccccc2c1=O [Compound 125]
[1]
  IC50: 10 to 20 µM
[2]
  IC50: > 20 µM

## CCn1nc(C(=O)N2CCN(c3cccc4c3OCC4)CC2)c2ccccc2c1=O [Compound 126]
[1]
  IC50: ≤ 1 µM
[2]
  IC50: ≤ 1 µM

## CCn1nc(C(=O)N2CCN(c3ccc(OCCOC)cc3Cl)CC2)c2ccccc2c1=O [Compound 127]
[1]
  IC50: > 20 µM
[2]
  IC50: > 20 µM

## CCn1nc(C(=O)N2CCN(c3ccccc3OC(C)C)CC2)c2ccccc2c1=O [Compound 128]
[1]
  IC50: ≤ 1 µM
[2]
  IC50: 1 to 10 µM

## CCn1nc(C(=O)N2CCN(c3ccccc3OCCOC)CC2)c2ccccc2c1=O [Compound 129]
[1]
  IC50: > 20 µM
[2]
  IC50: > 20 µM

## CCn1nc(C(=O)N2CCN(c3ccc(F)cc3OC)CC2)c2ccccc2c1=O [Compound 130]
[1]
  IC50: ≤ 1 µM
[2]
  IC50: ≤ 1 µM

## CCn1nc(C(=O)N2CCN(c3ccccc3C(C)(F)F)CC2)c2ccccc2c1=O [Compound 131]
[1]
  IC50: 1 to 10 µM
[2]
  IC50: 1 to 10 µM

## CCn1nc(C(=O)N2CCN(c3ccccc3OC3CC3)CC2)c2ccccc2c1=O [Compound 132]
[1]
  IC50: ≤ 1 µM
[2]
  IC50: 1 to 10 µM

## CCn1nc(C(=O)N2CCN(c3ccccc3C#N)CC2)c2ccccc2c1=O [Compound 133]
[1]
  IC50: 10 to 20 µM
[2]
  IC50: > 20 µM

## CCOc1ccccc1N1CCN(C(=O)c2nn(CC)c(=O)c3ccccc23)CC1 [Compound 134]
[1]
  IC50: ≤ 1 µM
[2]
  IC50: ≤ 1 µM

## CCn1nc(C(=O)N2CCN(c3ccccc3OC(F)(F)F)CC2)c2ccccc2c1=O [Compound 135]
[1]
  IC50: ≤ 1 µM
[2]
  IC50: ≤ 1 µM

## CCn1nc(C(=O)N2CCN(c3ncccc3C(F)(F)F)CC2)c2ccccc2c1=O [Compound 136]
[1]
  IC50: 1 to 10 µM
[2]
  IC50: 10 to 20 µM

## CCn1nc(C(=O)N2CCN(c3cccc(C(F)(F)F)c3OC)CC2)c2ccccc2c1=O [Compound 137]
[1]
  IC50: 10 to 20 µM
[2]
  IC50: > 20 µM

## CCn1nc(C(=O)N2CCN(c3cccc(F)c3OC)CC2)c2ccccc2c1=O [Compound 138]
[1]
  IC50: ≤ 1 µM
[2]
  IC50: ≤ 1 µM

## CCn1nc(C(=O)N2CCN(c3ncc(C)cc3F)CC2)c2ccccc2c1=O [Compound 139]
[1]
  IC50: > 20 µM
[2]
  IC50: > 20 µM

## CCn1nc(C(=O)N2CCN(c3ncc(F)cc3C(F)(F)F)CC2)c2ccccc2c1=O [Compound 140]
[1]
  IC50: 1 to 10 µM
[2]
  IC50: 1 to 10 µM

## CCn1nc(C(=O)N2CCN(c3ccc(OC)c(F)c3)CC2)c2ccccc2c1=O [Compound 141]
[1]
  IC50: > 20 µM
[2]
  IC50: > 20 µM

## CCn1nc(C(=O)N2CCN(c3cc(F)cc(F)c3)CC2)c2ccccc2c1=O [Compound 142]
[1]
  IC50: ≤ 1 µM
[2]
  IC50: ≤ 1 µM

## CCn1nc(C(=O)N2CCN(c3cccnc3OC)CC2)c2ccccc2c1=O [Compound 143]
[1]
  IC50: ≤ 1 µM
[2]
  IC50: ≤ 1 µM

## CCn1nc(C(=O)N2CCN(c3cc(F)c(F)cc3OC)CC2)c2ccccc2c1=O [Compound 144]
[1]
  IC50: ≤ 1 µM
[2]
  IC50: ≤ 1 µM

## CCn1nc(C(=O)N2CCN(c3ccc(F)cc3OC(F)F)CC2)c2ccccc2c1=O [Compound 145]
[1]
  IC50: ≤ 1 µM
[2]
  IC50: 1 to 10 µM

## CCn1nc(C(=O)N2CCN(c3cccc(F)c3)CC2)c2ccccc2c1=O [Compound 146]
[1]
  IC50: ≤ 1 µM
[2]
  IC50: ≤ 1 µM

## CCn1nc(C(=O)N2CCN(c3ccccc3OCC(F)(F)F)CC2)c2ccccc2c1=O [Compound 147]
[1]
  IC50: 1 to 10 µM
[2]
  IC50: 1 to 10 µM

## CCOc1cc(F)ccc1N1CCN(C(=O)c2nn(CC)c(=O)c3ccccc23)CC1 [Compound 148]
[1]
  IC50: ≤ 1 µM
[2]
  IC50: ≤ 1 µM

## CCn1nc(C(=O)N2CCN(c3cccc(OC)c3F)CC2)c2ccccc2c1=O [Compound 149]
[1]
  IC50: 1 to 10 µM
[2]
  IC50: 10 to 20 µM

## CCn1nc(C(=O)N2CCN(c3ccc(F)c(OC)c3)CC2)c2ccccc2c1=O [Compound 150]
[1]
  IC50: ≤ 1 µM
[2]
  IC50: ≤ 1 µM

## CCn1nc(C(=O)N2CCN(c3cccc(C#N)c3OC)CC2)c2ccccc2c1=O [Compound 151, 3-(4-(3-ethyl-4-oxo-3,4-dihydrophthalazine-1-carbonyl)piperazin-1-yl)-2-methoxybenzonitrile]
[1]
  IC50: 1 to 10 µM
[2]
  IC50: 10 to 20 µM

## CCn1nc(C(=O)N2CCN(c3cc(OC)ncc3F)CC2)c2ccccc2c1=O [Compound 152]
[1]
  IC50: > 20 µM
[2]
  IC50: > 20 µM

## CCn1nc(C(=O)N2CCN(c3cccc(OC)c3Br)CC2)c2ccccc2c1=O [Compound 153]
[1]
  IC50: 1 to 10 µM
[2]
  IC50: 1 to 10 µM

## CCn1nc(C(=O)N2CCN(c3c(C)cccc3OC)CC2)c2ccccc2c1=O [Compound 154]
[1]
  IC50: 1 to 10 µM
[2]
  IC50: 1 to 10 µM

## CCn1nc(C(=O)N2CCN(c3cccc4c3CCO4)CC2)c2ccccc2c1=O [Compound 155]
[1]
  IC50: ≤ 1 µM
[2]
  IC50: ≤ 1 µM

## Cn1nc(C(=O)N2CCN(c3ccccc3)CC2)c2cc(F)ccc2c1=O [Compound 156, 6-fluoro-2-methyl-4-(4-phenylpiperazine-1-carbonyl)phthalazin-1-one]
[1]
  IC50: 1 to 10 µM
[2]
  IC50: 1 to 10 µM

## Cn1nc(C(=O)N2CCN(c3cccc(C#N)c3)CC2)c2cc(F)ccc2c1=O [Compound 157, 3-(4-(7-fluoro-3-methyl-4-oxo-3,4-dihydrophthalazine-1-carbonyl)piperazin-1-yl)benzonitrile]
[1]
  IC50: ≤ 1 µM
[2]
  IC50: ≤ 1 µM

## COc1ccncc1N1CCN(C(=O)c2nn(C)c(=O)c3ccc(F)cc23)CC1 [Compound 158]
[1]
  IC50: ≤ 1 µM
[2]
  IC50: ≤ 1 µM

## Cn1nc(C(=O)N2CCN(c3cncc(C4CC4)c3)CC2)c2cc(F)ccc2c1=O [Compound 159]
[1]
  IC50: ≤ 1 µM
[2]
  IC50: ≤ 1 µM

## Cc1cc(N2CCN(C(=O)c3nn(C)c(=O)c4ccc(F)cc34)CC2)ccn1 [Compound 161]
[1]
  IC50: > 20 µM
[2]
  IC50: > 20 µM

## Cc1cncc(N2CCN(C(=O)c3nn(C)c(=O)c4ccc(F)cc34)CC2)c1 [Compound 162]
[1]
  IC50: ≤ 1 µM
[2]
  IC50: 1 to 10 µM

## COc1cc(N2CCN(C(=O)c3nn(C)c(=O)c4ccc(F)cc34)CC2)ccn1 [Compound 163]
[1]
  IC50: > 20 µM
[2]
  IC50: > 20 µM

## COCc1cncc(N2CCN(C(=O)c3nn(C)c(=O)c4ccc(F)cc34)CC2)c1 [Compound 164]
[1]
  IC50: > 20 µM
[2]
  IC50: > 20 µM

## Cn1nc(C(=O)N2CCN(c3cncc(Cl)c3)CC2)c2cc(F)ccc2c1=O [Compound 165]
[1]
  IC50: 1 to 10 µM
[2]
  IC50: 1 to 10 µM

## CCc1ccncc1N1CCN(C(=O)c2nn(C)c(=O)c3ccc(F)cc23)CC1 [Compound 166]
[1]
  IC50: ≤ 1 µM
[2]
  IC50: ≤ 1 µM

## Cc1ccncc1N1CCN(C(=O)c2nn(C)c(=O)c3ccc(F)cc23)CC1 [Compound 167]
[1]
  IC50: ≤ 1 µM
[2]
  IC50: ≤ 1 µM

## Cn1nc(C(=O)N2CCN(c3cncnc3C3CC3)CC2)c2cc(F)ccc2c1=O [Compound 168]
[1]
  IC50: ≤ 1 µM
[2]
  IC50: 1 to 10 µM

## COc1cccnc1N1CCN(C(=O)c2nn(C)c(=O)c3ccc(F)cc23)CC1 [Compound 169]
[1]
  IC50: ≤ 1 µM
[2]
  IC50: 1 to 10 µM

## Cn1nc(C(=O)N2CCN(c3ccccc3)CC2)c2cnccc2c1=O [Compound 170, 2-methyl-4-(4-phenylpiperazine-1-carbonyl)pyrido[3,4-d]pyridazin-1-one]
[1]
  IC50: > 20 µM
[2]
  IC50: > 20 µM

## Cn1nc(C(=O)N2CCN(c3ccccc3)CC2)c2ccncc2c1=O [Compound 171, 3-methyl-1-(4-phenylpiperazine-1-carbonyl)pyrido[3,4-d]pyridazin-4-one]
[1]
  IC50: > 20 µM
[2]
  IC50: > 20 µM

## COc1cccc(N2CCN(C(=O)c3nn(C)c(=O)c4cnccc34)CC2)c1 [Compound 172, 1-(4-(3-methoxyphenyl)piperazine-1-carbonyl)-3-methylpyrido[3,4-d]pyridazin-4(3H)-one]
[1]
  IC50: 1 to 10 µM
[2]
  IC50: 1 to 10 µM

## COc1cccc(N2CCN(C(=O)c3nn(C)c(=O)c4ccncc34)CC2)c1 [Compound 173, 4-(4-(3-methoxyphenyl)piperazine-1-carbonyl)-2-methylpyrido[3,4-d]pyridazin-1(2H)-one]
[1]
  IC50: ≤ 1 µM
[2]
  IC50: 1 to 10 µM

## COc1cc(F)ccc1N1CCN(C(=O)c2nn(C)c(=O)c3ccncc23)CC1 [Compound 174]
[1]
  IC50: 1 to 10 µM
[2]
  IC50: 10 to 20 µM

## COc1ccccc1N1CCN(C(=O)c2nn(C)c(=O)c3ccncc23)CC1 [Compound 175]
[1]
  IC50: ≤ 1 µM
[2]
  IC50: 1 to 10 µM

## COc1cc(F)cc(N2CCN(C(=O)c3nn(C)c(=O)c4ccncc34)CC2)c1 [Compound 176]
[1]
  IC50: ≤ 1 µM
[2]
  IC50: ≤ 1 µM

## Cn1nc(C(=O)N2CCN(c3ccccc3C3CC3)CC2)c2cnccc2c1=O [Compound 177]
[1]
  IC50: ≤ 1 µM
[2]
  IC50: ≤ 1 µM
